Like-named read-outs stand apart in the source and are kept apart here.
Legend:
human platelets = test: Platelet aggregation of human citrated platelet-rich plasma induced by arachidonic acid (turbidimetric); type: cell-based; settings: for inhibition at 100 µM: healthy human platelets, read-out: Inhibition of AA-induced platelet aggregation
Experimental: The human blood samples were obtained from adult volunteers, who abstained from the use of drugs or other substances that could interfere with the experiment for at least 15 days prior. […] The platelet rich (PRP) and poor (PPP) plasma were prepared by differential centrifugation and platelet aggregation was monitored using the turbidimetric method described by Born and Cross with an aggregometer 4-Pack® (Helena Laboratories, Beaumount, TX, USA). Different concentrations of the synthetic derivatives and the vehicle (DMSO 1%) were pre-incubated for 2 min before addition of the agonists (500 μM arachidonic acid and 5 μg/mL collagen). The platelet aggregation tests were performed in triplicate and the data were statistically analyzed.

PGE2 production = test: Measurement of plasma PGE2 levels by EIA in platelet-rich plasma; type: cell-based; settings: human platelet-rich plasma
Experimental: The stable direct metabolite of PGE2, 13,14-dihydro-15-keto-Prostaglandin E2, is a known marker of the COX-1 activity. By the measurement of total levels of this PGE2 metabolite in human platelet-rich plasma, we evaluated the feasibility of antiplatelet N,N'-disubstituted thioureas to inhibit COX-1 activity in healthy platelets (Table 2).
Plasma samples containing 100 μM of each thiourea with antiplatelet activity were used to determine the concentrations of […], an index of in vitro COX-1 activity. Briefly, ozagrel (3 μL, 100 μM) were added to stop TXS activity and the aggregation were triggered with 10 μL of arachidonic acid (500 μM) in PRP samples containing each active derivative (100 μM) under stir conditions. After five minutes the suspensions were mixed with indomethacin (3 μL, 10 mM) stop-solution. By sonication for 1 min, platelets were disrupted and purification step were performed according to the manufacturer’s instructions (Cayman Chemical Co.). Plasma levels of PGE2 were measured in duplicate by competitive immunoassay using commercially available kits for EIA (PGE2 EIA Kit, Cayman Chemical Co.) according to the manufacturer’s instructions. A threshold of 25.75 ng/mL was defined as control plasma levels of PGE2 after platelet disrupture.

TXB2 production = test: Measurement of plasma TXB2 levels by EIA in platelet-rich plasma; type: cell-based; settings: for inhibition at 100 µM: Homo sapiens, Platelet; for Platelet Inhibition of TXB2 (%): 100 µM, human platelet-rich plasma
Experimental: Thromboxane B2 (TXB2), a stable TXA2 metabolite, is widely used as a prognostic risk marker of platelet activation in cardiovascular disease, which is closely related to COX-1 and Thromboxane Synthetase activity. Thus, the plasma levels of this metabolite were measured using an enzyme immunoassay (EIA) as described in the Experimental Section.
Plasma samples containing 100 μM of each thiourea with antiplatelet activity were used to determine the concentrations of thromboxane B2, an index of in vitro COX-1 activity. Briefly, 10 μL of arachidonic acid (500 μM) were added to platelet-rich plasma samples containing each active derivative (100 μM) under stir conditions. After five minutes the suspensions were mixed with 3 μL Indomethacin (10 mM) stop-solution. By sonication for 15 min, platelets were disrupted, and the resulting homogenates were centrifuged at 2000 g for 10 min to allow complete release of TXB2. Plasma levels of TXB2 were measured in duplicate by competitive immunoassay using commercially available kits from EIA Cayman (TXB2 EIA Kit, Cayman Chemical Co, Ann Arbor, MI, USA) according to the manufacturer’s instructions. A threshold of 25.75 ng/mL was defined as control plasma levels of TXB2 after platelet disrupture.

Salmonella typhimurium = test: Reverse mutagenesis to histidine prototrophy (Ames test), spot test; settings: without metabolic activation; 10 µM, 100 µM and 500 µM
Experimental: This assay was performed as described by Maron and Ames, using the histidine Salmonella typhimurium auxotroph mutant strains TA97, TA98, TA100 and the […] TA102 (Table 5).

Escherichia coli = test: SOS chromotest, spot test; type: cell-based
Experimental: The SOS chromotest (spot test) was performed according to Quillardet and Hofnung, using Escherichia coli (Table 6) strains PQ35 and PQ37. One hundred microliters of an overnight culture of the E. coli strains are diluted in 5 mL of LB medium and the culture is incubated at 37 °C in a gyratory incubator up to a concentration of 2 × 10^8 bacteria/mL. Fractions of 0.1 mL of the culture are then distributed into test tube with top agar, and the mixture is poured immediately on M63 medium plate. A sample of 10 µL of the thiourea derivatives is spotted onto the center of the plate. After overnight incubation at 37 °C, the presence of a blue ring around a zone of inhibition indicates genotoxic activity.

[1] = Hemolysis assay (erythrocyte lysis); type: cell-based, human; settings: human, erythrocyte suspension, pH 7.4; 3 h incubation; derivatives and ASA at 100 μM, TRITON at 1%
Experimental: (§1) Healthy erythrocytes were washed three times with PBS (pH 7.4) by centrifugation and suspended in the same buffer. All derivatives were incubated with the erythrocyte suspension for 3 h at 37 °C. The release of hemoglobin was determined by monitoring the optical density of the supernatant at 540 nm. The experiments were performed in triplicate and complete hemolysis (positive control) was determined using 1% Triton X-100. Hemolysis less than 10% indicated good hemocompatibility and non-toxicity of the molecules tested.

COX-1 = test system: COX-1; design: method as in PMID 22263894; settings: read-out: IC50 of non-anionic COX-1 inhibitors; cited from earlier work
erythrocytes = test: Hemolysis assay (erythrocyte lysis); type: cell-based, human; settings: 3 h incubation; derivatives and ASA at 100 μM, TRITON at 1%
Experimental: as §1

[2] = Homo sapiens, Platelet, read-out: IC50, concentration that caused 50% inhibition of platelet aggregation, arachidonic acid-induced (500 μM), human platelet-rich plasma
[3] = read-out: IC50, concentration that caused 50% inhibition of platelet aggregation, arachidonic acid-induced (500 μM), human platelet-rich plasma

Compound | IC50 (human platelets; [2]) [µM] | inhibition at 100 µM (human platelets; Platelet) [%] | inhibition at 100 µM (PGE2 production) [%] | inhibition at 100 µM (TXB2 production) [%] | Ames Test S. typhimurium TA97 (Salmonella typhimurium) | Ames Test S. typhimurium TA98 (Salmonella typhimurium) | Ames Test S. typhimurium TA100 (Salmonella typhimurium) | Ames Test S. typhimurium TA102 (Salmonella typhimurium) | IC50 (human platelets; [3]) [µM] | melting point [°C] | Platelet Inhibition of TXB2 (%) (TXB2 production) | Antiplatelet activity (in words) (human platelets; AA-induced platelet aggregation) | SOS Chromotest E. coli PQ35 (Escherichia coli) | hemolysis at 3 h, 100 µM [1] [%] | IC50 (COX-1) [µM] | Hemolysis (erythrocytes) [%]
CCN(CC)C(=S)Nc1ccccc1 [3d, N-N-Diethyl-N'-phenylthiourea] | 29.1 | 96 to 98 | 25.6 ± 5.9 | 74.2 ± 10.2 | - | - | - | - |  |  |  |  |  |  |  | 
CCN(CC)C(=S)NCc1ccccc1 [3i, N-Benzyl-N',N'-diethylthiourea] |  | 96 to 98 | 21.1 ± 5 | 74.7 ± 5.5 | - | - | - | - | 86.2 |  |  |  |  |  |  | 
CCN(CC)C(S)=NCCc1ccccc1 [3m, N,N-diethyl-N'-(2-phenethyl)thiourea] | 34.5 | 96 to 98 | 28.2 ± 5.9 | 91 | - | - | - | - | 34.5 ± 0.9 | 72 to 74 | 91.2 ± 0.0 |  |  |  |  | 
S=C(NCCc1ccccc1)Nc1ccc2c(c1)OCO2 [3p, N-(3,4-Methylenedioxyphenyl)-N'-(2-phenethyl)thiourea] | 84.6 | 96 to 98 | 7.9 ± 7.9 | 88 | - | - | - | - | 84.5 | 126 to 128 | 88.1 ± 5.5 |  |  |  |  | 
COc1cc(NC(=S)Nc2ccc3c(c2)OCO3)cc(OC)c1OC [3q, N-(3,4-Methylenedioxyphenyl)-N'-(3,4,5-trimethoxyphenyl)thiourea] | 290 ± 21.9 |  |  |  | - | - | - | - |  | 142 to 144 |  | lack antiplatelet activity |  |  |  | 
CC(=O)Oc1ccccc1C(=O)O [Aspirin, acetylsalicylic acid, reference compound] |  |  | 47.5 ± 1.4 | 78.5 ± 5 | - | - | - | - |  |  |  |  | - | 2 |  | 
COc1ccc2c(c1)c(CC(=O)O)c(C)n2C(=O)c1ccc(Cl)cc1 [Indomethacin, reference compound] |  |  | 28 ± 1.6 | 99.8 |  |  |  |  |  |  |  |  |  |  |  | 
O=C(O)/C=C/c1ccc(Cn2ccnc2)cc1 [Ozagrel, reference compound] |  |  |  | 98 ± 2.8 |  |  |  |  |  |  |  |  |  |  |  | 
Nc1ccc(NC(=O)c2ccc(C(F)(F)F)cc2)nc1 [TFAP] |  |  |  |  |  |  |  |  |  |  |  |  |  |  | 0.8 | 
Triton X-100 |  |  |  |  |  |  |  |  |  |  |  |  |  |  |  | 100

From PMC6272548, “Synthesis and Antiplatelet Activity of Antithrombotic Thiourea Compounds: Biological and Structure-Activity Relationship Studies” (Molecules, 2015)
